# From patent US20250281497A1, “FUSED AMINO PYRIMIDINE COMPOUNDS FOR TREATMENT OF SEIZURE DISORDERS” (Ovid Therapeutics Inc., priority 2024, published 2025)
# Assays:
# [1] = test system: panel of 144 protein kinases; assay: SelectScreen panel of 144 protein kinases; assay type: biochemical; conditions: includes PKC isoforms, OSR1, SPAK, WNK
# Method: Aliquots of HEK-293 cells expressing KCC2 were exposed to 30 μM SSA, heated from 37-55° C. The remaining level of soluble native KCC2 at each temperature was measured by immunoblotting and normalized to the level seen at 37° C. which was given a value of 1. […] This panel included protein kinase C isoforms, OSR1, SPAK (STK39) and with-no-lysine kinases (WNK), all of which phosphorylate KCC2 on multiple residues to indirectly modify its activity (Kahle et al., 2013, supra; Smalley et al., 2020, supra).
# brain slices = assay: In vitro seizure assay, brain slices in 0-Mg ACSF, field recording in entorhinal cortex; design: species or system mice; conditions: Compound A 1 μM
# Description: In vitro seizure assays. […] Slices were then transferred to a Warner Instruments recording chamber and electrodes of 0.5-1 mohm were inserted into layer IIII of the medial entorhinal cortex, several cell layers deep. […] The field recordings were then employed to monitor the development of seizure-like events (SLEs) and their transition to late recurrent discharges (LRDs) which are believed to be analogous to the development of status epilepticus (SE) (Kelley et al., 2016, supra; Moore et al., 2018, supra).
# NKCC1 = biological target: T1, NKCC1 (Homo sapiens, UniProt P55011); assay: Tl+ assay, HEK-293 cells expressing NKCC1; assay type: cell-based; conditions: read-out: concentration at which effects on NKCC1 were seen (EC50 chart FIG. 1G)
# T1 construct: expressed in transfected cells; host or cells: HEK-293
# T1 sequence (P55011 1-1212): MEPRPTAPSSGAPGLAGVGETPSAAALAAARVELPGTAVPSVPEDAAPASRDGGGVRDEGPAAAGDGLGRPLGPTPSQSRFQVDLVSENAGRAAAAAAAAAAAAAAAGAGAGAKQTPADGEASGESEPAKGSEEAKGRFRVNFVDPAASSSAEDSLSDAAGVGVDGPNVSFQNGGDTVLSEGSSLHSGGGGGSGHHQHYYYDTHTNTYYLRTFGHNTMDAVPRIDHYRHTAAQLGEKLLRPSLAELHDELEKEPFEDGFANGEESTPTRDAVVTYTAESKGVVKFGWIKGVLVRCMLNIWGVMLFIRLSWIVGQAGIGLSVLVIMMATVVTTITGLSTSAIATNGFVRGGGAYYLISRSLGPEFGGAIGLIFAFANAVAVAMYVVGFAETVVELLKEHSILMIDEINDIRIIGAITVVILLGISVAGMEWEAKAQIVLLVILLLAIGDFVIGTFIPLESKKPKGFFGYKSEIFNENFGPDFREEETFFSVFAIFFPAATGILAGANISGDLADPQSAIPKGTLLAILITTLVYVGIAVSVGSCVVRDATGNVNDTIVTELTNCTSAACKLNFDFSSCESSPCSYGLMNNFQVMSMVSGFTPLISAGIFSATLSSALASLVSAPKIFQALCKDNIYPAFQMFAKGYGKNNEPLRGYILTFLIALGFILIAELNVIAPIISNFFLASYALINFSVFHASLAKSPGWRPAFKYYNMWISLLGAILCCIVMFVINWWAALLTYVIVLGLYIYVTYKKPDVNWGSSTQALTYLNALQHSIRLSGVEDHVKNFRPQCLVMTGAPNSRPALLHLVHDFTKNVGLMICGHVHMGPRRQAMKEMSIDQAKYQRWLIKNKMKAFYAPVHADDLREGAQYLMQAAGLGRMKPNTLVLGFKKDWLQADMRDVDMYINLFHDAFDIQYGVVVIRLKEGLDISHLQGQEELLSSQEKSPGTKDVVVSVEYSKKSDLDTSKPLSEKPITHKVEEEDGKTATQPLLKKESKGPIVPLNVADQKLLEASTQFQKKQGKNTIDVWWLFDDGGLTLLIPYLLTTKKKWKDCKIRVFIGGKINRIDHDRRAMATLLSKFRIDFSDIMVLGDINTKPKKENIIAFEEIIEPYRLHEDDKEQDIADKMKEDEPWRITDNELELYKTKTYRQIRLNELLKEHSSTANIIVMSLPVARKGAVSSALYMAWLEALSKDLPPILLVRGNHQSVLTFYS
# Method: FLIPR TI Flux assay. HEK-293 cells were washed with HBSS, and then incubated with loading buffer containing TI sensitive fluorescent dye (https://www.moleculardevices.com), 20 μM bumetanide 20 μM ouabain and 2.5 mM probenecid for 1 h at room temperature (RT) under control conditions or with drugs in the dark using a FlexStation 3 microplate reader (Molecular Devices) and imaged […] for 30 min. Stimulus buffer was added containing 5 mM K^+/0.5 mM Tl^+ and cells were imaged every 1.5 over a 190 second time course The initial rate Tl^+ uptake (Relative Fluorescence Units (RFU) per second) was determined following addition of the stimulus buffer as outlined previously (Conway et at, 2017, supra) (Lee et at, 2022, supra).
# Several studies have shown that the activity and plasma membrane accumulation of KCC2 is potentiated via phosphorylation of S940, a process mediated by the activity of protein kinase C and protein phosphatase 1 (Lee et al., 2011, supra; Lee et al., J Biol Chem 282, 29777-29784 (2007); Moore et al., Proc. Natl. Acad. Sci. U.S.A. 115, 10166-10171 (2018); Moore et al., Trends Neurosci. 40, 555-571 (2017); Silayeva et al., Proc. Natl. Acad. Sci. U.S.A. 112, 3523-3528 (2015)). […] Compared to KCC2, effects on KCC3, KCC4, and NKCC1 were only seen at concentrations more than 35-fold that of KCC2 (>100 μM) (FIG. 1G).
structure (smiles),measurement,setting,value
"C[C@@H]1CN(c2nc3c(c(Nc4ccc(C5CCCCC5)cc4)n2)COC3)CCO1 [Compound A, (R)—N-(4-cyclohexylphenyl)-2-(2-methylmorpholino)-5,7-dihydrofuro[3,4-d]pyrimidin-4-amine]",activity of panel of 144 protein kinases,[1],did not modify the activity of this kinase panel
same,time to first seizure-like event (SLE),brain slices; vehicle=10.5±2.6,11.3 ± 3.3 min
same,time to late recurrent discharges (LRDs),brain slices; vehicle=12.4±4.1,28.4 ± 6.4 min
same,EC50,NKCC1,> 100 µM
